Measured values: patent publication US12398154B2, “Azaquinazoline pan-KRas inhibitors” (Mirati Therapeutics, Inc., priority 2020, dated 2025)

Assays:
[1] = target: KRas G12D (Homo sapiens, UniProt P01116, G12D); experiment: biochemical;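 further: TR-FRET displacement binding assay on KRas, read after a one-hour incubation at room temperature, IC50 fitted from percent-of-control values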
Description: (§1) The ability of a compound to bind to KRas was measured using a TR-FRET displacement assay. […] After a 60-minute incubation at room temperature, the reaction was measured using a BMG LABTECH CLARIO star Plus via TR-FRET. […] The POC values were fit to a 4-parameter IC50 equation and the IC50 value reported.

[2] = target: KRas G12V (Homo sapiens, UniProt P01116, G12V); experiment: biochemical;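 further: KRas binding measured by TR-FRET displacement at room temperature, IC50 fitted from percent of control values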
Chain of KRas G12V (P01116 1-169 isoform P01116-2 G12V): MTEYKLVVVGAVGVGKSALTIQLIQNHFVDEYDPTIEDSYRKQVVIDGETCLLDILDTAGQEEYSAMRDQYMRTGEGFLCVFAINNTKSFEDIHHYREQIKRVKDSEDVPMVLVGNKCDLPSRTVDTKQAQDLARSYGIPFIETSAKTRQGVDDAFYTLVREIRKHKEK
Description: as §1

[3] = target: KRas G12R (Homo sapiens, UniProt P01116, G12R); experiment: biochemical;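 further: TR-FRET displacement assay of compound binding to KRas, read after one hour at room temperature, potency from a four-parameter fit of percent-of-control values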
Chain of KRas G12R (P01116 1-169 isoform P01116-2 G12R): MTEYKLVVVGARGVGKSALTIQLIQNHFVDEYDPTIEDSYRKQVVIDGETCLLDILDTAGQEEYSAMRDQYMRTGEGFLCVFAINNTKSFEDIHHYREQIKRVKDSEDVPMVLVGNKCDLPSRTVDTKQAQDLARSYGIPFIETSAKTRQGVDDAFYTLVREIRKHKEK
Description: as §1

[4] = target: KRas G12A (Homo sapiens, UniProt P01116, G12A); experiment: biochemical;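 further: binding to KRas measured by TR-FRET displacement after one hour at room temperature, IC50 from a four-parameter fit of percent-of-control values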
Chain of KRas G12A (P01116 1-169 isoform P01116-2 G12A): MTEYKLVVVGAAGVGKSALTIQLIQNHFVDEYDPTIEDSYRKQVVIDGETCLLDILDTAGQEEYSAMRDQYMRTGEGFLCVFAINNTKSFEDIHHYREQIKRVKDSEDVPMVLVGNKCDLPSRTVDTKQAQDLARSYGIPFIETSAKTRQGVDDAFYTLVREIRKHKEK
Description: as §1

[5] = target: KRas G12S (Homo sapiens, UniProt P01116, G12S); experiment: biochemical;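 further: TR-FRET displacement binding to KRas, read after one hour incubation at room temperature, IC50 from four-parameter fit of percent of control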
Chain of KRas G12S (P01116 1-169 isoform P01116-2 G12S): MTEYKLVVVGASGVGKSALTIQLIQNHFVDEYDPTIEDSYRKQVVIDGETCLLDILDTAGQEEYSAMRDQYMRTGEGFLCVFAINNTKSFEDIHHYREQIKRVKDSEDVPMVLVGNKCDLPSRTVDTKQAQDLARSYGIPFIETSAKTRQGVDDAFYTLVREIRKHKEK
Description: as §1

[6] = target: KRas G12C (Homo sapiens, UniProt P01116, G12C); experiment: biochemical;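 further: binding to KRas assessed by TR-FRET displacement after one hour incubation at room temperature, potency fitted from percent-of-control values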
Chain of KRas G12C (P01116 1-169 isoform P01116-2 G12C): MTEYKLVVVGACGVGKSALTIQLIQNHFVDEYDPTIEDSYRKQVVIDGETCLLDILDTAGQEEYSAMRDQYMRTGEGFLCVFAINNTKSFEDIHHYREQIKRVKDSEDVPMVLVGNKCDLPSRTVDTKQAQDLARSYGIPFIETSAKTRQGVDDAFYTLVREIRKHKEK
Description: as §1

[7] = target: KRas WT (Homo sapiens, UniProt P01116); experiment: biochemical;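 further: binding to KRas read as TR-FRET displacement after a one-hour room-temperature incubation, IC50 derived from percent-of-control values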
Chain of KRas WT (P01116 1-169 isoform P01116-2): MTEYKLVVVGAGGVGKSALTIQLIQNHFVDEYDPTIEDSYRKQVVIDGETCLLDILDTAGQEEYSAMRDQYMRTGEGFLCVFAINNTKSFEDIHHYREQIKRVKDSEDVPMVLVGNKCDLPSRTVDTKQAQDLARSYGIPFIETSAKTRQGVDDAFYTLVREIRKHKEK
Description: as §1

[8] = system: pERK in MKN1 cells; experiment: Inhibition of KRas phosphorylation of ERK (Cisbio HTRF pERK assay); details: Homo sapiens, MKN-1, 3 h, read-out: Inhibition (HTRF IC50) of KRas-mediated Phosphorylation of ERK, MKN1
[9] = system: pERK in PSN1 cells; experiment: as above; details: Homo sapiens, PSN1, 3 h, read-out: Inhibition (HTRF IC50) of KRas-mediated Phosphorylation of ERK, PSN1
[10] = system: pERK in ASPC1 cells; experiment: as above; details: Homo sapiens, ASPC1, read-out: Inhibition (HTRF IC50) of KRas-mediated Phosphorylation of ERK, AsPC-1
[11] = system: pERK in H727 cells; experiment: as above; details: Homo sapiens, NCI-H727, read-out: Inhibition (HTRF IC50) of KRas-mediated Phosphorylation of ERK, H727
[12] = system: pERK in A549 cells; experiment: as above; details: Homo sapiens, A549, read-out: Inhibition (HTRF IC50) of KRas-mediated Phosphorylation of ERK, A549
[13] = system: pERK in H460 cells; experiment: as above; details: Homo sapiens, NCI-H460, read-out: Inhibition (HTRF IC50) of KRas-mediated Phosphorylation of ERK, H460
[14] = system: pERK in HCT116 cells; experiment: as above; details: Homo sapiens, HCT-116, read-out: Inhibition (HTRF IC50) of KRas-mediated Phosphorylation of ERK, HCT116
Description: To harvest cells from flask using 0.05% Trypsin/EDTA solution. Add 10 mL of media to stop trypsinizing. Pipette the cells into a conical bottom 50 mL centrifuge tube and centrifuge 5 min×1000 rpm. • 2. Re-suspend the cell pellet in media, take a cell count, and then adjust the cell density using fresh media. • 3. Seed 6,000 cells into cell culture plate with 50 μL media. […] Incubate cell plate overnight in a 37° C., 5% CO2 incubator. • Compound titrations • 1. Use Tecan to complete the compound addition. Compounds start from 10 uM top, 3-fold dilution, and 10 doses. The final DMSO concentration is 0.8%. Dispensed 0.2 uM Trametinib as Min control. • 2. Incubate cell plate for 3 hrs in the incubator. • Detection with cisbio pERK HTRF kit • 1. […] At the end of the compound treatment, flick-off the media. • 3. Add 35 μL of lysis buffer per well using a Multidrop Combi. Then place on a plate agitator shaking at 300 rpm at 4° C. for 40 mins. • 4. Make up the HTRF antibody buffer. For each assay plate, mix 50 μL of d2-conjugate antibody with 950 μL of detection buffer. Similarly, mix 50 μL of Cryptate antibody with 950 μL of detection buffer. Then mix the two diluted antibodies together. • 5. Dispense 3.4 μL the antibody buffer to wells of an empty assay plate. Seal the plate and centrifuge plate 30 sec×1000 rpm. • 6. At the end of the 4° C. lysis, centrifuge the lysate plates 3 mins×1500 rpm. • 7. Use the Bravo to transfer 13.6 μL of lysate from cell culture plate to assay plate.
Then incubate assay plate for 2 hrs at room temperature. […] At the end of incubation, read plate on the Envision after centrifuging plate 30 sec× • 1000 rpm.

[15] = system: pERK in H358 cells; experiment: as above; details: Homo sapiens, NCI-H358, read-out: Inhibition (HTRF IC50) of KRas-mediated Phosphorylation of ERK, H358

Chain of KRas G12D (P01116 1-169 isoform P01116-2 G12D): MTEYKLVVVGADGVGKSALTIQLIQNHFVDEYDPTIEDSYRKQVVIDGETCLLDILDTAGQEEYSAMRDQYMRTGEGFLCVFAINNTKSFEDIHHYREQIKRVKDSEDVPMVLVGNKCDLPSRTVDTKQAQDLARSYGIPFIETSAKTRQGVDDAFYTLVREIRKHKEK

IC50 [1]	IC50 [2]	IC50 [3]	IC50 [4]	IC50 [5]	IC50 [6]	IC50 [7]	IC50 [8]	IC50 [9]	IC50 [10]	IC50 [11]	IC50 [12]	IC50 [13]	IC50 [14]	IC50 [15]	Compound
≤ 2 nM	≤ 2 nM	≤ 2 nM	≤ 2 nM	≤ 2 nM	≤ 2 nM	≤ 2 nM	7 nM	2120 nM	13 nM	28 nM	38 nM	38 nM	42 nM	4 nM	CCc1c(F)ccc2cc(O)cc(-c3ncc4c(N5CCC[C@@](C)(O)C5)nc(OC[C@]56CCCN5[C@H](COC(=O)N(C)C)CC6)nc4c3F)c12 [Example 313, ((3S,7aR)-7a-(((7-(8-ethyl-7-fluoro-3-hydroxynaphthalen-1-yl)-8-fluoro-4-((R)-3-hydroxy-3-methylpiperidin-1-yl)pyrido[4,3-d]pyrimidin-2-yl)oxy)methyl)hexahydro-1H-pyrrolizin-3-yl)methyl dimethylcarbamate]
≤ 2 nM	≤ 2 nM	≤ 2 nM	≤ 2 nM	≤ 2 nM	≤ 2 nM	≤ 2 nM	3 nM	407 nM	9 nM	21 nM	19 nM	14 nM	21 nM	2 nM	CCc1c(F)ccc2cc(O)cc(-c3ncc4c(N5CCC[C@@](C)(O)C5)nc(OC[C@@]56CCCN5[C@H](COC(=O)N(C)C)CC6)nc4c3F)c12 [Example 314, ((3S,7aS)-7a-(((7-(8-ethyl-7-fluoro-3-hydroxynaphthalen-1-yl)-8-fluoro-4-((R)-3-hydroxy-3-methylpiperidin-1-yl)pyrido[4,3-d]pyrimidin-2-yl)oxy)methyl)hexahydro-1H-pyrrolizin-3-yl)methyl dimethylcarbamate]
≤ 2 nM	≤ 2 nM	≤ 2 nM	≤ 2 nM	≤ 2 nM	≤ 2 nM	≤ 2 nM	20 nM	3930 nM	40 nM	46 nM	197 nM	287 nM	98 nM	985 nM	CCc1c(F)ccc2cc(O)cc(-c3ncc4c(N5CCCCCC5)nc(OC[C@@]56CCCN5C[C@H](F)C6)nc4c3F)c12 [Example 317, 4-(4-(azepan-1-yl)-8-fluoro-2-(((2R,7aS)-2-fluorohexahydro-1H-pyrrolizin-7a-yl)methoxy)pyrido[4,3-d]pyrimidin-7-yl)-5-ethyl-6-fluoronaphthalen-2-ol]
≤ 2 nM	≤ 2 nM	≤ 2 nM	≤ 2 nM	≤ 2 nM	≤ 2 nM	≤ 2 nM	3 nM	7760 nM	16 nM	30 nM	99 nM	71 nM	39 nM	7 nM	CCc1c(F)ccc2cc(O)cc(-c3ncc4c(N5CCOC[C@@](C)(O)C5)nc(OCC5(CN6CCCC6)CC5)nc4c3F)c12 [Example 321, (S)-4-(7-(8-ethyl-7-fluoro-3-hydroxynaphthalen-1-yl)-8-fluoro-2-((1-(pyrrolidin-1-ylmethyl)cyclopropyl)methoxy)pyrido[4,3-d]pyrimidin-4-yl)-6-methyl-1,4-oxazepan-6-ol]
≤ 2 nM	≤ 2 nM	≤ 2 nM	–	–	≤ 2 nM	≤ 2 nM	8 nM	305 nM	29 nM	61 nM	84 nM	52 nM	57 nM	11 nM	CCc1c(F)ccc2cc(O)cc(-c3ncc4c(N5CCCC6(CNS(=O)(=O)N6)C5)nc(OC[C@@]56CCCN5C[C@H](F)C6)nc4c3F)c12 (stereo partly drawn) [Example 330, 7-(7-(8-ethyl-7-fluoro-3-hydroxynaphthalen-1-yl)-8-fluoro-2-(((2R,7aS)-2-fluorohexahydro-1H-pyrrolizin-7a-yl)methoxy)pyrido[4,3-d]pyrimidin-4-yl)-2-thia-1,3,7-triazaspiro[4.5]decane 2,2-dioxide]
≤ 2 nM	≤ 2 nM	≤ 2 nM	–	–	–	–	8 nM	4830 nM	4 nM	6 nM	11 nM	53 nM	81 nM	2 nM	CCc1c(F)ccc2cc(O)cc(-c3ncc4c(N5CCCn6nc(C(=O)N(C)C)c(Cl)c6C5)nc(OC[C@@]56CCCN5C[C@H](F)C6)nc4c3F)c12 [Example 504, 3-chloro-5-(7-(8-ethyl-7-fluoro-3-hydroxynaphthalen-1-yl)-8-fluoro-2-(((2R,7aS)-2-fluorohexahydro-1H-pyrrolizin-7a-yl)methoxy)pyrido[4,3-d]pyrimidin-4-yl)-N,N-dimethyl-5,6,7,8-tetrahydro-4H-pyrazolo[1,5-a][1,4]diazepine-2-carboxamide]
≤ 2 nM	≤ 2 nM	4 nM	–	–	–	–	7 nM	1950 nM	25 nM	262 nM	345 nM	179 nM	341 nM	40 nM	CCc1c(F)ccc2cc(O)cc(-c3ncc4c(N5CCCC6(CCS(=O)(=O)C6)C5)nc(OC[C@@]56CCCN5C[C@H](F)C6)nc4c3F)c12 (stereo partly drawn) [Example 507, 7-(7-(8-ethyl-7-fluoro-3-hydroxynaphthalen-1-yl)-8-fluoro-2-(((2R,7aS)-2-fluorohexahydro-1H-pyrrolizin-7a-yl)methoxy)pyrido[4,3-d]pyrimidin-4-yl)-2-thia-7-azaspiro[4.5]decane 2,2-dioxide]
≤ 2 nM	≤ 2 nM	≤ 2 nM	–	–	–	–	2 nM	1040 nM	8 nM	25 nM	23 nM	27 nM	45 nM	6 nM	CCc1c(F)ccc2cc(O)cc(-c3ncc4c(N5CCC[C@@](C)(O)C5)nc(OC[C@@]56CCCN5[C@H](COC(=O)N5CCOCC5)CC6)nc4c3F)c12 [Example 511, ((3S,7aS)-7a-(((7-(8-ethyl-7-fluoro-3-hydroxynaphthalen-1-yl)-8-fluoro-4-((R)-3-hydroxy-3-methylpiperidin-1-yl)pyrido[4,3-d]pyrimidin-2-yl)oxy)methyl)hexahydro-1H-pyrrolizin-3-yl)methyl morpholine-4-carboxylate]
5 nM	5 nM	8 nM	–	–	–	–	14 nM	2830 nM	55 nM	80 nM	68 nM	130 nM	291 nM	53 nM	CCc1c(F)ccc2cc(O)cc(-c3ncc4c(N5CCC[C@@](C)(O)C5)nc(OC[C@@]56CCCN5[C@@H](COC(=O)N(C)C)CC6)nc4c3F)c12 [Example 512, ((3R,7aS)-7a-(((7-(8-ethyl-7-fluoro-3-hydroxynaphthalen-1-yl)-8-fluoro-4-((R)-3-hydroxy-3-methylpiperidin-1-yl)pyrido[4,3-d]pyrimidin-2-yl)oxy)methyl)hexahydro-1H-pyrrolizin-3-yl)methyl dimethylcarbamate]
